For orientation: LogP means a log measure of how a compound divides between an organic and an aqueous phase. As usually defined, the chromatographic logP is lipophilicity estimated from chromatographic retention. Lower therefore signals lower lipophilicity.

The test system of one data set is Botrytis cinerea. As to the kind of experiment: In vivo preventive test on Botrytis cinerea (grey mould). The settings on record: gherkin plants, preventive spray, evaluated 4 to 5 days after inoculation. How it is done: The young plants of gherkin are treated by spraying the active ingredient prepared as described above. Control plants are treated only with an aqueous solution of acetone/Dimethyl sulfoxide/Tween®. After 24 hours, the plants are contaminated by spraying the leaves with an aqueous suspension of Botrytis cinerea spores. The contaminated gherkin plants are incubated for 4 to 5 days at 17° C. and at 90% relative humidity.

The subject of the next data set is Puccinia recondita. As to the kind of experiment: In vivo preventive test on Puccinia recondita (brown rust on wheat). The settings on record: wheat plants, preventive spray, evaluated 11 days after inoculation. The protocol: The young plants of wheat are treated by spraying the active ingredient prepared as described above. Control plants are treated only with an aqueous solution of acetone/Dimethyl sulfoxide/Tween®. After 24 hours, the plants are contaminated by spraying the leaves with an aqueous suspension of Puccinia recondita spores.

The subject of data set [1] is Pyricularia oryzae. The class given is in vivo. The conditions noted are these: 500 ppm of active ingredient; rice plants, preventive spray; evaluated 6 days after inoculation.
For the next data set, the system named is Septoria tritici. As to the kind of experiment: In vivo preventive test on Septoria tritici (leaf spot on wheat). The settings on record: wheat plants, preventive spray, evaluated 24 days after inoculation. How it is done: The young plants of wheat are treated by spraying the active ingredient prepared as described above. Control plants are treated only with an aqueous solution of acetone/Dimethyl sulfoxide/Tween®. After 24 hours, the plants are contaminated by spraying the leaves with an aqueous suspension of Septoria tritici spores.

A further data set deals with Sphaerotheca fuliginea. As to the kind of experiment: In vivo preventive test on Sphaerotheca fuliginea (powdery mildew on cucurbits). The conditions noted are these: gherkin plants, preventive spray, evaluated 15 days after inoculation. How it is done:
The young plants of gherkin are treated by spraying the active ingredient prepared as described above. Control plants are treated only with an aqueous solution of acetone/Dimethyl sulfoxide/Tween®. After 24 hours, the plants are contaminated by spraying the leaves with an aqueous suspension of Sphaerotheca fuliginea spores.

For another data set, the system named is Uromyces appendiculatus. As to the kind of experiment: In vivo preventive test on Uromyces appendiculatus (bean rust). The settings on record: bean plants, preventive spray, evaluated 11 days after inoculation. How it is done: The young plants of bean are treated by spraying the active ingredient prepared as described above. Control plants are treated only with an aqueous solution of acetone/Dimethyl sulfoxide/Tween®. After 24 hours, the plants are contaminated by spraying the leaves with an aqueous suspension of Uromyces appendiculatus spores.

The subject of data set [2] is Blumeria graminis fsp. hordei. As to the kind of experiment: Blumeria test (barley)/preventive. The class given is in vivo. The conditions noted are these: 500 ppm of active ingredient, preventive, evaluated 7 days after inoculation. How it is done: (§1) Solvent: 49 parts by weight of N,N-dimethylacetamide Emulsifier: 1 part by weight of alkylaryl polyglycol ether To produce a suitable preparation of active compound, 1 part by weight of active compound or active compound combination is mixed with the stated amounts of solvent and emulsifier, and the concentrate is diluted with water to the desired concentration. To test for preventive activity, young plants are sprayed with the preparation of active compound or active compound combination at the stated rate of application. After the spray coating has been dried, the plants are dusted with spores of Blumeria graminis fsp. hordei. The plants are placed in the greenhouse at a temperature of approximately 18° C. and a relative atmospheric humidity of approximately 80% to promote the development of mildew pustules.

Another data set has as its system Fusarium culmorum. The data set can be described thus: Fusarium culmorum-test (wheat)/preventive. The class given is in vivo. The conditions noted are these: 500 ppm of active ingredient, preventive, evaluated 5 days after inoculation. How it is done: Solvent: 49 parts by weight of N,N-dimethylacetamide
Emulsifier: 1 part by weight of alkylaryl polyglycol ether
To produce a suitable preparation of active compound, 1 part by weight of active compound or active compound combination is mixed with the stated amounts of solvent and emulsifier, and the concentrate is diluted with water to the desired concentration.
To test for preventive activity, young plants are sprayed with the preparation of active compound or active compound combination at the stated rate of application. After the spray coating has been dried, the plants are slightly injured by using a sandblast and afterwards they are sprayed with a conidia suspension of Fusarium culmorum.
The plants are placed in the greenhouse under a translucent incubation cabinet at a temperature of approximately 22° C. and a relative atmospheric humidity of approximately 100%.
The test is evaluated 5 days after the inoculation. 0% means an efficacy which corresponds to that of the untreated control, while an efficacy of 100% means that no disease is observed.

A further data set concerns Fusarium graminearum. Format: in vivo. The conditions noted are these: 500 ppm of active ingredient; barley, preventive; evaluated 5 days after inoculation.
Data set [3] has as its system Fusarium nivale (var. majus). As to the kind of experiment: Fusarium nivale (var. majus)-test (wheat)/preventive. The conditions noted are these: 500 ppm of active ingredient, preventive, evaluated 5 days after inoculation. Format: in vivo. The protocol: as §1, with “slightly injured by using a sandblast and afterwards they are sprayed” for “dusted”, “a conidia suspension” for “spores”, “Fusarium nivale (var. majus).” for “Blumeria graminis fsp. hordei. The plants are placed in the greenhouse at a temperature of approximately 18° C. and a relative atmospheric humidity of approximately 80% to promote the development of mildew pustules.”

The next data set deals with Leptosphaeria nodorum. As to the kind of experiment: Leptosphaeria nodorum test (wheat)/preventive. The settings on record: 500 ppm of active ingredient, preventive, evaluated 8 days after inoculation. Format: in vivo. How it is done: as §1, with “sprayed” for “dusted”, “a spore suspension” for “spores”, “Leptosphaeria nodorum. […]” for “Blumeria graminis fsp. hordei.”, “22°” for “18°”, “80%.” for “80% to promote the development of mildew pustules.”

The test system of another data set is Phakopsora pachyrhizi. As to the kind of experiment: Phakopsora test (soybeans)/preventive. Format: in vivo. The conditions noted are these: preventive, evaluated 7 days after inoculation.
The next data set has as its system Podosphaera leucotricha. The data set can be described thus: Podosphaera test (apples)/preventive. Format: in vivo. The settings on record: 100 ppm of active ingredient, preventive, evaluated 10 days after inoculation. The protocol:
(§2) Solvent: 24.5 parts by weight of acetone • 24.5 parts by weight of dimethylacetamide Emulsifier: 1 part by weight of alkylaryl polyglycol ether To produce a suitable preparation of active compound, 1 part by weight of active compound is mixed with the stated amounts of solvent and emulsifier, and the concentrate is diluted with water to the desired concentration. To test for preventive activity, young plants are sprayed with the preparation of active compound at the stated rate of application. After the spray coating has dried on, the plants are inoculated with an aqueous spore suspension of the causal agent of apple mildew (Podosphaera leucotricha). The plants are then placed in a greenhouse at approximately 23° C. and a relative atmospheric humidity of approximately 70%.

Data set [4] concerns Pyricularia oryzae. Format: in vivo. The settings on record: 500 ppm of active ingredient; rice, preventive; evaluated 8 days after inoculation.
The next data set concerns Venturia inaequalis. As to the kind of experiment: Venturia test (apples)/preventive. The class given is in vivo. The conditions noted are these: 100 ppm of active ingredient, preventive, evaluated 10 days after inoculation. How it is done: as §2, with “After the spray coating has dried on, the plants are inoculated with an aqueous spore suspension of the causal agent of apple mildew (Podosphaera leucotricha).” left out, “21°” for “23°”, “90%.” for “70%.”

The subject of a further data set is Pyrenophora teres. The data set can be described thus: In vivo preventive test on Pyrenophora teres (net blotch on barley). The conditions noted are these: barley plants, preventive spray, evaluated 14 days after inoculation. How it is done: The young plants of barley are treated by spraying the active ingredient prepared as described above. Control plants are treated only with an aqueous solution of acetone/Dimethyl sulfoxide/Tween®. After 24 hours, the plants are contaminated by spraying the leaves with an aqueous suspension of Pyrenophora teres spores.

A further data set is described as follows: physchem. The settings on record: pH 2.7.

Each structure is given as a SMILES string. Read-outs that look alike come from different tables or passages of the source. Marks after values point to notes of the source that are not given here.

Turning to `CC(C)(C)C(O)(Cc1cccnc1Cl)Cn1cncn1` (centres unmarked) [Example I-3], the Eff. % came out at 100% in the data set with Botrytis cinerea (500 ppm of active ingredient); 97% with Puccinia recondita (500 ppm of active ingredient); 88% with Pyricularia oryzae [1]; 100% in the data set with Septoria tritici (500 ppm of active ingredient); 100% in the data set on Sphaerotheca fuliginea (500 ppm of active ingredient); 100% in the data set with Uromyces appendiculatus (500 ppm of active ingredient). Also, the Eff. % (in data set [2]; with Fusarium culmorum; in the data set on Fusarium graminearum; in data set [3]; with Leptosphaeria nodorum; with Phakopsora pachyrhizi (100 ppm of active ingredient)) was 100% throughout. In addition, the Eff. % is on record as 100% in the data set on Podosphaera leucotricha, 75% in the data set with Pyricularia oryzae [4] and 100% with Venturia inaequalis. The LogP was 1.94 (pH 2.7) and 1.90 (pH 7.8).

Consider `CC(C)(C)C(O)(Cc1ccncc1Cl)Cn1cncn1` (centres unmarked) [Example I-4, 1-(3-chloropyridin-4-yl)-3,3-dimethyl-2-(1H-1,2,4-triazol-1-ylmethyl)butan-2-ol], for which the Eff. % with Puccinia recondita (100 ppm of active ingredient) came to 88%; in the data set with Pyrenophora teres (100 ppm of active ingredient), 83%; with Sphaerotheca fuliginea (100 ppm of active ingredient), 100%; with Uromyces appendiculatus (100 ppm of active ingredient), 100%; in data set [2], 100%; in the data set with Fusarium culmorum, 93%. The Eff. % in the data set with Fusarium graminearum stood at 92%; in data set [3], 100%; in the data set with Leptosphaeria nodorum, 88%; in the data set on Phakopsora pachyrhizi (100 ppm of active ingredient) it was 99%; in the data set on Venturia inaequalis, 94%. Besides, the chromatographic logP in the data set “physchem” (reversed phase HPLC columns) was found to be 1.74.

As to `CC(C)(C)C(O)(Cc1ccncc1F)Cn1cncn1` (centres unmarked) [Example I-6], the Eff. % is 100% in the data set on Botrytis cinerea (100 ppm of active ingredient); 88% in the data set with Puccinia recondita (100 ppm of active ingredient); 98% with Septoria tritici (100 ppm of active ingredient); 100% with Sphaerotheca fuliginea (100 ppm of active ingredient); 100% in the data set with Uromyces appendiculatus (100 ppm of active ingredient); 100% in data set [2]. Further, the Eff. % in the data set with Fusarium culmorum is recorded as 100%; in the data set with Fusarium graminearum, 100%; in [3], 100%; in the data set on Leptosphaeria nodorum, 100%; with Phakopsora pachyrhizi (100 ppm of active ingredient), 99%; in the data set with Pyricularia oryzae [4] it was 94%. In addition, the Eff. % in the data set on Venturia inaequalis was found to be 96%. Also, under “pH 2.7”, the log partition coefficient (LogP) was 1.41^[a].

In the case of `CC(C)(C)C(O)(Cc1cc(F)ncc1Cl)Cn1cncn1` (centres unmarked) [Example I-29], the Eff. % in the data set on Botrytis cinerea (500 ppm of active ingredient) is reported as 100%; in the data set with Puccinia recondita (500 ppm of active ingredient) it was 100%; in the data set with Pyrenophora teres (500 ppm of active ingredient) it was 93%; with Septoria tritici (500 ppm of active ingredient) it was 100%; with Sphaerotheca fuliginea (500 ppm of active ingredient), 100%; in the data set on Uromyces appendiculatus (500 ppm of active ingredient), 100%. Besides, the Eff. % in data set [2] amounted to 100%; in the data set on Fusarium culmorum it was 100%; in the data set on Fusarium graminearum it was 100%; in [3], 100%; in the data set on Leptosphaeria nodorum it was 100%; in the data set on Phakopsora pachyrhizi (10 ppm of active ingredient) it was 78%. The molecule further registered an Eff. % with Pyricularia oryzae [4] of 71%. Moreover, the LogP (pH 2.7) is 2.39^[a].

For `CC(C)(C)C(=O)Cc1cccnc1Cl` [Example V-4, 1-(2-chloropyridin-3-yl)-3,3-dimethylbutan-2-one], the chromatographic logP in the data set “physchem” worked out at 2.34.

The molecule `CC(C)(C)C1(Cc2ccncc2Cl)CO1` (centres unmarked) [XII-5, 4-[(2-tert-butyloxiran-2-yl)methyl]-3-chloropyridine] registered a chromatographic logP in “physchem” of 2.8.

The values above are taken from US9668481B2, “Triazole derivatives” (priority 2013, dated 2017).
